Among the data in ChEMBL document CHEMBL4602667, “An NMR-Based Chemometric Strategy to Identify Leishmania donovani Nucleoside Hydrolase Inhibitors from the Brazilian Tree Ormosia arborea” (J Nat Prod, 2020) are IC50, inhibition and Ki values, retold here.

Molecules are shown by their SMILES. Calls of active or inactive are those of the source. The rule behind the calls is not given here.

A short description of experiment [1]: Inhibition of recombinant Leishmania donovani C-terminal His6-tagged Nucleoside hydrolase expressed in Escherichia coli BL21(DE3) cells assessed as reduction in uric acid formation by coupled assay.
The next experiment relates to Leishmania donovani. As to the kind of experiment: Reversible inhibition of recombinant Leishmania donovani C-terminal His6-tagged Nucleoside hydrolase expressed in Escherichia coli BL21(DE3) cells assessed recovery of enzyme activity at 10 times of IC50 preincubated for 20 mins followed by inosine addition by jump dilution experiment based assay.
Experiment [2] is described as follows: Noncompetitive inhibition of recombinant Leishmania donovani C-terminal His6-tagged Nucleoside hydrolase expressed in Escherichia coli BL21(DE3) cells assessed as decrease in Vmax using 0.01 to 3 mM of inosine as substrate preincubated for 20 mins followed by inosine addition.

One may read the IC50 as the concentration that gives 50% inhibition. For orientation: Ki means a measure of affinity in units of concentration, obtained from inhibition or displacement. Take `O=C(/C=C/c1ccc(O)cc1)O[C@@H]1Cc2c(O)cc3c(c2O[C@@H]1c1ccc(O)c(O)c1)[C@H]1c2c(O)cc(O)cc2O[C@@](c2cc(O)c(O)c(O)c2)(O3)[C@@H]1O`: the IC50 in experiment [1] is 28.2 µM. Also, the inhibition result with Leishmania donovani was “Active”. In addition, the Ki in experiment [2] stood at 27.9 µM.
Regarding `O=C(/C=C/c1ccc(O)cc1)O[C@@H]1Cc2c(O)cc3c(c2O[C@@H]1c1ccc(O)c(O)c1)[C@H]1c2c(O)cc(O)cc2O[C@@](c2ccc(O)c(O)c2)(O3)[C@@H]1O`, in experiment [1], the IC50 is 25.6 µM. Also, in the experiment on Leishmania donovani, the inhibition result is “Active”. For the same compound, the Ki in experiment [2] stood at 21.2 µM.
